Assay results published in patent US20050026897A1, “Trinuclear copper-based compound and ligand for nucleic acid scission and anticancer treatment” (priority 2001, published 2005).

Legend:
OD1+OD2 duplex DNA = test: Strand scission of duplex-forming OD1+OD2 with MPA, PAGE; assay type: biochemical
Procedure: (§1) FIG. 3 is an autoradiogram of a 20% polyacrylamide denaturing gel (7 M urea) showing cleavage products of 100 nM 5′-^32P-labeled OD1 incubated with a compound of formula I and MPA (3-mercaptopropionic acid) for 15 minutes in sodium phosphate (10 mM, pH 7.5) at ambient temperature. Lane 1 depicts OD1 alone. Lane 2 depicts OD1 with 5 μM formula I. Lane 3 depicts OD1 with 5 mM MPA. Lane 4-6 depict 0.5, 1, and 5 μM formula I with 5 mM MPA and OD1. Lane 7 depicts OD1+OD2 with 10 μM formula 1 and 5 mM MPA. Lane 8 depicts A+G sequencing lane.
(§2) A hairpin forming oligonucleotide (OD1) (SEQ ID NO. 2) (see FIG. 1) was treated with a compound of formula I in the presence of excess MPA and it was then quenched with dithiocarbamic acid. […] Selectivity was reduced to 66% if the concentration of the compound of formula I is increased 10-fold to 5 μm, due in part to an increase in reactivity primarily at A9, T10 and T21 (FIG. 3, lane 6). In the absence of either the thiol or the compound of formula I, no cleavage of OD1 was observed (FIG. 3, lanes 2 and 3). In addition, there was no enhancement of reaction at A9, T10 or T21. […] The persistent specificity for A22 when OD2 is present was likely due to residual hairpin formed in competition with duplex DNA.

[1] = system: hairpin forming oligonucleotide (OD1); test: Strand scission of 5'-32P-labeled hairpin oligonucleotide OD1 with MPA, PAGE / phosphorimage analysis; assay type: biochemical
Procedure: as §1
as §2, with “DNA. […]” for “DNA.”

**Q.** [Cu+2].c1cnc2c(c1)ccc1cccnc12.c1cnc2c(c1)ccc1cccnc12 [Cu(OP)2^2+, bis(1,10-phenanthroline)copper] was tested. Which “A22 as target of reaction” value (OD1+OD2 duplex DNA) did it give?
**A.** not a major target

**Q.** And the “A22 as target of reaction” value [1]?
**A.** not a major target
